Data on 46 compounds can be found in ChEMBL document CHEMBL1138905, “Design, synthesis, and biological evaluation of indole derivatives as novel nociceptin/orphanin FQ (N/OFQ) receptor antagonists” (Bioorg Med Chem Lett, 2006).

In assay [1] the target is T1, Nociceptin receptor (Homo sapiens, UniProt P41146). The assay is described as follows: Displacement of [125I][Tyr14]N/OFQ from ORL1 receptor transfected in CHO cells. Format: cell-based. For orientation: In a radioligand displacement assay an active substance lowers the binding of a labelled ligand.
T1 sequence (P41146 whole entry): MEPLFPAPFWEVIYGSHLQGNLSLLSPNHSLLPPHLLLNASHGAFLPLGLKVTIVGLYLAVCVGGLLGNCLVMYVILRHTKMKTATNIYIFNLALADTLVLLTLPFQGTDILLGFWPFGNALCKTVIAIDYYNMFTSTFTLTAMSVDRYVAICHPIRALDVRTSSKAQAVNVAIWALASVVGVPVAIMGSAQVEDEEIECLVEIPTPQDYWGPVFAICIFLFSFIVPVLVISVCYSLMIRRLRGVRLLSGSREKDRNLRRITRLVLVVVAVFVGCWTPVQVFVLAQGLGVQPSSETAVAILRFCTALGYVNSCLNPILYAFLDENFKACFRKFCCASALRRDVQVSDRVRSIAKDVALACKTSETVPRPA
Assay [2] deals with T1, Nociceptin receptor. Put plainly: Displacement of [125I][Tyr14]N/OFQ from ORL1 receptor transfected in CHO cells at 1 uM. Format: cell-based.
For assay [3], the target named is T1, Nociceptin receptor. Put plainly: Antagonist activity against ORL1 receptor by GTPgammaS assay. Format: functional.

By IC50 is commonly meant the concentration that gives 50% inhibition. The inhibition is the percentage by which the read-out fell short of the control. A low value points to little suppression. On Nociceptin receptor [1], `CC(C)CCc1noc(-c2cc3c(CCN(C)C)cccc3[nH]2)n1` had an IC50 of over 1000 nM. At Nociceptin receptor [2], the inhibition was found to be 29%.
On to `CN1CCC(c2cccc3[nH]c(-c4nc(CCc5ccc(Cl)cc5)no4)cc23)CC1`, for which the IC50 at Nociceptin receptor [1] amounted to 62 nM; at Nociceptin receptor [3] it was 899 nM.
Compound `CN(C)CCc1cccc2[nH]c(-c3nnc(CCc4ccc(Cl)cc4)o3)cc12` showed an IC50 at Nociceptin receptor [1] of over 1000 nM. Besides, at Nociceptin receptor [2], the inhibition stood at 39%.
Consider `CCN(C)CCc1cccc2[nH]c(-c3nc(CCc4ccc(Cl)cc4)no3)cc12`, for which the IC50 was 58 nM on Nociceptin receptor [1] and 223 nM on Nociceptin receptor [3].
On Nociceptin receptor [1], `CN(C)CCc1cccc2[nH]c(-c3nc(CCc4ccccn4)no3)cc12` displayed an IC50 of over 1000 nM. The inhibition on Nociceptin receptor [2] came to 11%.
Compound `CN(C)CCc1cccc2[nH]c(-c3nc(CCC4CC5CCC4C5)no3)cc12` (centres undefined) came in with an IC50 on Nociceptin receptor [1] of 440 nM.
For `CN(C)CCc1cccc2[nH]c(-c3nc(CCCN4CCCC4)no3)cc12`, the IC50 on Nociceptin receptor [1] was over 1000 nM. The compound further returned an inhibition on Nociceptin receptor [2] of 0%.
For `CN(C)CCc1cccc2[nH]c(-c3nc(CCc4cccnc4)no3)cc12` the same measures were over 1000 nM and 1.7%.
Take `CN(C)CCc1cccc2[nH]c(-c3nc(CCc4ccc(Cl)cc4)no3)cc12`: the IC50 on Nociceptin receptor [1] amounted to 95 nM; against Nociceptin receptor [3], 632 nM.
Turning to `CN(C)CCc1cccc2[nH]c(-c3nc(CC4CCCCC4)no3)cc12`, at Nociceptin receptor [1], the IC50 came to 440 nM.
On Nociceptin receptor [1], `CN(C)CCc1cccc2[nH]c(-c3nc(CCc4ccccc4)no3)cc12` registered an IC50 of over 1000 nM. For the same compound, the inhibition on Nociceptin receptor [2] stood at 46%.
In the case of `CN1CCN(c2cc[nH]c3nc(-c4nc(CCc5ccc(Cl)cc5)no4)cc2-3)CC1`, on Nociceptin receptor [1], the IC50 is over 1000 nM. The compound also showed an inhibition on Nociceptin receptor [2] of 27%.
In turn, `COc1ccc(CCc2noc(-c3cc4c(CCN(C)C)cccc4[nH]3)n2)cc1` displayed an IC50 at Nociceptin receptor [1] of 560 nM.
In turn, `CN(C)CCc1cccc2[nH]c(-c3nnn(CCc4ccc(Cl)cc4)n3)cc12` had an IC50 on Nociceptin receptor [1] of over 1000 nM. For the same compound, the inhibition at Nociceptin receptor [2] turned out to be 46%.
For `CN(C)CCc1cccc2[nH]c(-c3nc(CCc4ccc(N(C)C)cc4)no3)cc12` the same measures were over 1000 nM and 44%.
As for `CN(C)CCc1cccc2[nH]c(-c3nc(CCc4ccc(F)cc4)no3)cc12`, the 50% inhibitory concentration (IC50) on Nociceptin receptor [1] came to 450 nM.
Take `CN(C)CCc1cccc2[nH]c(-c3ncc(CCc4ccc(Cl)cc4)o3)cc12`: the IC50 on Nociceptin receptor [1] was over 1000 nM. The compound also had an inhibition on Nociceptin receptor [2] of 37%.
With `CN1CCN(c2cccc3[nH]c(-c4nc(CCc5ccc(Cl)cc5)no4)cc23)CC1`, on Nociceptin receptor [1], the IC50 worked out at 120 nM.
Take `CN(C)Cc1cccc2[nH]c(-c3nc(CCc4ccc(Cl)cc4)no3)cc12`: the values for the IC50 on Nociceptin receptor [1] and at Nociceptin receptor [3] were 62 nM and 233 nM, respectively.
Consider `CN(C)CCc1cccc2[nH]c(-c3nc(CCc4ccncc4)no3)cc12`, for which the IC50 at Nociceptin receptor [1] was over 1000 nM. The same compound yielded an inhibition on Nociceptin receptor [2] of 12%.
As for `CCCc1noc(-c2cc3c(CCN(C)C)cccc3[nH]2)n1`, at Nociceptin receptor [1], the IC50 was over 1000 nM. The compound also had an inhibition on Nociceptin receptor [2] of 14%.
For `Clc1ccc(CCc2noc(-c3cc4c(CCN5CCOCC5)cccc4[nH]3)n2)cc1` the same measures were over 1000 nM and 15%.
The corresponding values for `CN(C)CCc1cccc2[nH]c(C(=O)NCCCc3ccc(Cl)cc3)cc12` are over 1000 nM and 41%.
For `CCCCc1noc(-c2cc3c(CCN(C)C)cccc3[nH]2)n1` the same measures were over 1000 nM and 42%.
In the case of `CN1CCN(c2[nH]ccc3nc(-c4nc(CCc5ccc(Cl)cc5)no4)cc2-3)CC1`, the IC50 turned out to be 40 nM on Nociceptin receptor [1] and 199 nM at Nociceptin receptor [3].
On Nociceptin receptor [1], `CN(C)CCc1ccc2[nH]c(-c3nc(CCc4ccc(Cl)cc4)no3)cc2c1` registered an IC50 of over 1000 nM. The inhibition on Nociceptin receptor [2] was found to be 3%.
`CN(C)CCc1cccc2[nH]c(-c3nc(CCC4CCOCC4)no3)cc12` came in with an IC50 at Nociceptin receptor [1] of over 1000 nM. On Nociceptin receptor [2], the inhibition amounted to 11%.
`CN(C)CCc1cccc2[nH]c(-c3nc(COc4ccc(Cl)cc4)no3)cc12` returned an IC50 at Nociceptin receptor [1] of 410 nM.
In turn, `CN(C)CCc1cccc2cc(-c3nc(CCc4ccc(Cl)cc4)no3)[nH]c12` registered an IC50 on Nociceptin receptor [1] of over 1000 nM. The compound also came in with an inhibition on Nociceptin receptor [2] of 18%.
`Clc1ccc(CCc2noc(-c3cc4c(CCN5CCCC5)cccc4[nH]3)n2)cc1`: the IC50 at Nociceptin receptor [1] was determined as 568 nM.
In turn, `CN(C)CCc1cccc2[nH]c(-c3nc(CCCc4ccc(Cl)cc4)no3)cc12` displayed an IC50 on Nociceptin receptor [1] of over 1000 nM. The inhibition at Nociceptin receptor [2] was determined as 49%.
In the case of `CN(C)CCc1cccc2[nH]c(-c3nc(CCC4CCCC4)no3)cc12`, the IC50 on Nociceptin receptor [1] was 580 nM.
`CN(C)CCc1ccc2cc(-c3nc(CCc4ccc(Cl)cc4)no3)[nH]c2c1` gave an IC50 at Nociceptin receptor [1] of over 1000 nM. This compound also came in with an inhibition on Nociceptin receptor [2] of 22%.
For `CN(C)CCc1cccc2[nH]c(-c3nc(CCC4CCCCC4)no3)cc12`, the IC50 at Nociceptin receptor [1] is 140 nM.
Consider `COC(C)(C)CCc1noc(-c2cc3c(CCN(C)C)cccc3[nH]2)n1`, for which, on Nociceptin receptor [1], the IC50 is over 1000 nM. The compound further had an inhibition on Nociceptin receptor [2] of 4%.
`CN(C)CCc1cccc2[nH]c(-c3nc(CCc4ccc(C(F)(F)F)cc4)no3)cc12`: the IC50 stood at 49 nM on Nociceptin receptor [1] and 421 nM at Nociceptin receptor [3].
Consider `CN(C)CCc1cccc2[nH]c(-c3nc(CCC4CC4)no3)cc12`, for which the IC50 on Nociceptin receptor [1] is over 1000 nM. The inhibition at Nociceptin receptor [2] amounted to 29%.
The corresponding values for `CN(C)CCc1cccc2[nH]c(-c3nc(CCC(C)(C)C)no3)cc12` are over 1000 nM and 20%.
As to `CN(C)CCc1cccc2[nH]c(-c3nc(CCCC4CCCCC4)no3)cc12`, the IC50 was 71 nM on Nociceptin receptor [1] and 294 nM against Nociceptin receptor [3].
`CN1CCCC1c1ccc2[nH]c(-c3nc(CCc4ccc(Cl)cc4)no3)cc2c1C1CCCN1C` (centres undefined): the IC50 on Nociceptin receptor [1] is over 1000 nM. In addition, the inhibition on Nociceptin receptor [2] was found to be 31%.
`CN(C)CCc1cccc2[nH]c(-c3noc(CCc4ccc(Cl)cc4)n3)cc12`: the IC50 at Nociceptin receptor [1] worked out at 600 nM.
In the case of `CN(C)CCc1cccc2[nH]c(C(=O)NCCc3ccc(Cl)cc3)cc12`, the IC50 at Nociceptin receptor [1] was over 1000 nM. Moreover, the inhibition on Nociceptin receptor [2] came out at 18%.
Regarding `Cc1ccc(CCc2noc(-c3cc4c(CCN(C)C)cccc4[nH]3)n2)cc1`, at Nociceptin receptor [1], the IC50 stood at 230 nM.
On the same count and under the same terms, to `CN(C)CCCc1cccc2[nH]c(-c3nc(CCc4ccc(Cl)cc4)no3)cc12` belongs 210 nM; to `CN(C)CCc1cccc2[nH]c(-c3nc(Cc4ccc(Cl)cc4)no3)cc12`, 450 nM.
As for `CN(C)CCOCCc1cccc2[nH]c(-c3nc(CCc4ccc(Cl)cc4)no3)cc12`, the IC50 came out at 97 nM at Nociceptin receptor [1] and 450 nM on Nociceptin receptor [3].
